Assay results as given in patent publication US12215118B2, “Quinone methide analog signal amplification” (Ventana Medical Systems, Inc., priority 2014, dated 2025).

Tests used:
[1] = tested on: alkaline phosphatase (AP); test: Trapping of the QM intermediate with Tris in solution, HPLC-MS; type: biochemical; conditions: pH 10 Tris buffer
Procedure: To probe the mechanism of staining and quenching, an attempt was made to trap the QM intermediate formed by monofluoro QM precursor 7 in solution-phase under similar conditions to those utilized in the staining experiments (FIG. 26). QM precursor 7 was dissolved in pH 10 Tris buffer followed by addition of a catalytic amount of AP. The reaction progress was monitored by HPLC-MS (FIG. 27, panels A-C). Within 10 minutes, complete conversion to the Tris adduct 7-tris was observed (panel C).

[2] = tested on: BCL6 on FFPE tonsil tissue; test: AP-based CARD IHC with biotinylated QM precursor followed by DAB detection
Procedure: Detection 1—HRP DAB. After incubating with the AP conjugate the slides were washed with Special Stains wash (VMSI #860-015). QMP reagents were dissolved in 100 mM CHES (3-cyclo-hexylamino-ethylsulfonic acid), pH 10.0, 0.05% Brij-35. QMP turnover was achieved by adding 100 μL of AP Enhancer (VMSI #253-2182) followed by 100 μL of hapten labeled QMP and incubating at 37° C. for 16 minutes. Compound 29 is an exemplary hapten-QMP that could be used according to this method. The deposited hapten was subsequently bound by a mouse-anti-hapten-HRP conjugate (or streptavidin-HRP) (37° C.; 8 minutes), and visualized via a brown precipitate produced by HRP upon the addition of hydrogen peroxide and DAB (37° C.; 8 minutes). The DAB was toned by the addition of copper sulfate (37° C.; 4 minutes). The stained tissue sections were counterstained with modified Mayer's hematoxylin (Hematoxylin II, VMSI #790-2208) (37° C.; 4 minutes) and then incubated with Bluing Reagent (VMSI #760-2037) (37° C.; 4 minutes). The slides were then dehydrated through a graded ethanol series, cleared with xylene, and manually cover-slipped.
Both compounds utilize fluoride as the leaving group, but the reactivity of the QM derived from difluoro compound 58 should be considerably lower than monofluoro 7 due to the electronic stabilization offered by the geminal fluorine atom. […] Therefore, the difluoro QM precursor compound 58 was evaluated first for IHC staining performance on FFPE tissue using the nuclear marker BCL6 on FFPE tonsil tissue as a model system. The biotin-labeled difluoro QM precursor successfully bound to the sample as evidenced by subsequent biotin visualization using diaminobenzidine (DAB) detection. FIG. 18 provides microphotographs illustrating the detection level at varying concentrations of the difluoro QM precursor in a Tris buffer at pH=8.5 (panel A—DAB control, panel B—1 μM, panel C—10 μM and panel D—20 μM). In addition, significant amplification of signal was observed compared to the DAB control sample when on-slide concentrations of difluoro QM precursor compound 58 greater than […] were utilized.
To test the effect of pH on signal diffusion, difluoro QM precursor compound 58 was deposited as before at various pH levels within the working range for AP (7-12 with two shoulders of maximal activity at pH=8.5 and 11). The nuclear marker BCL6 on FFPE tonsil tissue was again chosen as the model. Positive staining was observed across the entire pH range, although a balance between overall signal and diffusion was seen. FIG. 19, panels A-H provide microphotographs of the detection levels of 20 µM QM precursor in Tris buffer with varying pH: panel A—DAB control; panel B pH=7.0; panel C pH=8.0; panel D pH=8.5; panel E pH=9.0; panel F pH=10.0; panel G pH=11.0; panel H pH=12.0. The diffusion appears to decrease with increasing pH. […] The level of amplification increased only as the pH rose to 8.5 and then decreased gradually over the rest of the range. This effect may be due to a combination of enzyme activity and the population of QM quenchers in the reaction media. At pH levels well below the optimal AP reaction conditions (7.0), the activity of AP was depressed, resulting in low signal. As the pH increased (8.0-8.5) but remained near the pKa of Tris (8.1), the activity of AP increased at a faster rate than the population of quenchers in the reaction media, leading to a significant increase in signal. Raising the pH further (9-10) increased the quencher population while decreasing AP activity, resulting in a decrease of signal. Although AP had maximal activity at pH 11 in Tris, a slight decrease in staining intensity was observed, most likely due to the excessively high population of quenchers that could not be overcome by the increased AP activity (raising the pH from 8.5 to 11 increases [Tris base] about 50%, with AP activity increasing by only about 20%). […]

[3] = tested on: Bcl2 on FFPE tonsil tissue; test: HRP DAB amplified by QMP-biotin with different linkers; conditions: 100 nM, CHES pH 10.0, different linkers
Procedure: The tissue was deparaffinized and retrieved as described in the general procedures. Mouse-anti-Bcl-2 antibody incubation (37° C., 16 minutes) and washing were followed by secondary antibody incubation with a goat polyclonal anti-mouse antibody conjugated to AP (37° C.; 12 minutes). After incubating with the AP conjugate the slides were washed with Special Stains wash. Monofluoro QMP-biotin (with aniline amide (FIG. 23(A)), benzoic amide (FIG. 23(B)) or tyramide amide linker (FIG. 23(C)) (100 nM) was dissolved in 100 mM CHES, pH 10.0, 0.05% Brij-35 to a final concentration of 100 nM. QMP turnover was achieved by adding 100 μL of AP Enhancer followed by 100 μL of biotin labeled QMP and incubating at 37° C. for 16 minutes. The deposited biotin was subsequently bound by a streptavidin-HRP conjugate (37° C.; 8 minutes), and visualized via a brown precipitate produced by HRP upon the addition of hydrogen peroxide and DAB (37° C.; 8 minutes). The DAB was toned by the addition of copper sulfate (37° C.; 4 minutes). The stained tissue sections were counterstained with modified Mayer's hematoxylin (37° C.; 4 minutes) and then incubated with Bluing Reagent (37° C.; 4 minutes). They were then dehydrated through a graded ethanol series, cleared with xylene, and manually cover-slipped.

Compound	time to complete conversion to the Tris adduct ([1]; catalytic amount of AP) [min]	reaction in the absence of AP ([1]; no AP)	diffusion and off-target staining ([2]; 250 nM, Tris buffer, pH of 10)	concentration required to give the desired level of amplification ([2]; pH 8.5 in Tris buffer) [nM]	overall diffusion compared to difluoro QM precursor 58 ([2]; pH 8.5 in Tris buffer)	signal resolution [3]
O=C(CCCCC1SCC2NC(=O)NC21)NCCCCCC(=O)Nc1ccc(OP(=O)(O)O)c(CF)c1 (stereo not shown) [Compound 7, 2-(fluoromethyl)-4-(6-(5-(2-oxohexahydro-1H-thieno[3,4-d]imidazol-4-yl)pentanamido)hexanamido)phenyl dihydrogen phosphate]	≤ 10	no reaction took place	nearly eliminated	250	greatly reduced	well resolved signals
O=C(CCCCC1SCC2NC(=O)NC21)NCCCCCNC(=O)c1ccc(OP(=O)(O)O)c(CF)c1 (stereo not shown) [Compound 21, 2-(fluoromethyl)-4-((5-(5-(2-oxohexahydro-1H-thieno[3,4-d]imidazol-4-yl)pentanamido)pentyl)carbamoyl)phenyl dihydrogen phosphate]	–	–	–	–	–	more diffuse, less resolved signal
